Reference: patent publication US20200390102A1, “SYNERGISTIC ANTIMICROBIAL COMPOSITION” (DDP SPECIALTY ELECTRONIC MATERIALS US, INC., priority 2017, published 2020)

Experiments:
[1] = test system: Thermus thermophilus (DSM: 579); experiment: Synergy in the planktonic phase, 48 h biocide challenge at 60° C. with dilution-series regrowth readout; format: cell-based
Description: Experiments using Thermus thermophdus (DSM: 579) as a test organism were also performed. In these experiments, the total concentration of biocides was 300 ppm for the combined total actives, the temperature at which the experiments were performed was 60° C., the media to grow Thermus thermophdus was DSMZ DSM 74-Media at pH 8.0. (Yeast extract (BD Difco) 4.0 g, Proteose peptone Nr. 3 (BD Difco) 8.0 g, NaCl 2.0 g, distilled water added to 1 L). The challenging with biocides against Thermus thermophilus was done in a standard ocean matrix with a similar salinity of 2% (similar to the media where they are cultured in). Once again, each experiment was done in triplicate.
The inoculated assay block was challenged at 60° C. for 48 hours. The inoculum prepared added between to 1*10^8 to 1*10^9 total cells/mL (determined by MPN analysis). After 48 hours of challenge with biocide, 20 μL aliquots of each treatment (well) were added to one of several 96 well plates with DSM 74-media. These 96 well plates were filled with ‘recovery’ media (DSM 74-Media). One of these plates was prepared for each column of the assay block. 180 μL recovery media was added to each well of a 96 well plate, except for column 1 of the recovery plate. This column was filled with 180 μL of one column of the assay block. The last three columns on the recovery plate were not pipetted. These columns represented the no template control for verifying proper plate set up and data reliability. The assay block sample was then diluted in steps of 10 fold by transferring 20 μL from e.g. columns 1 to column 2 and from column 2 to column 3 (until column 9) by applying a multichannel pipet in each recovery plate. […]
The recovery plates were allowed to regrow for 4-6 days and subsequently read (checked for microbial growth). This was done in duplicate for each point (the duplicate is already present in the biocide block viz. each point is truly determined in duplicate). […] Turbidity was checked in log scale reading the recovery plates. Turbidity was recorded via presence/absence and gave the log kill range (from the made dilution series). […]

[2] = test system: Pseudomonas aeruginosa (ATCC […]) and Escherichia coli (ATCC 10145) combined inoculum; experiment: Synergy in the planktonic phase, 48 h biocide challenge with regrowth (turbidity) readout; format: cell-based; details: P. aeruginosa/E. coli, 48 h challenge at 30° C., phosphate buffer pH 7.3
Description: Pseudomonas aeruginosa (ATCC […]) and Escherichia coli (ATCC 10145) cultures were separately prepared from glycerol stocks. First they were streak plated and validated with a microscope. Single colonies were picked and used to inoculate 200 mL shake flasks that were grown statically overnight at 30° C. (30 grams/L Tryptic Soy Broth) to produce the initial inoculum. A deep-well 96 well challenge plate (2 mL maximum well volume) was prepared using 900 μL/well phosphate buffer at pH 7.3, (0.0027M potassium chloride, 0.137 M sodium chloride). Inoculation took place at the start of the experiments (with a 100 μL combined inoculum, adding to the 900 μL buffer to total 1 mL/well). The inoculum added between 1*10^8 and 1*10^9 total cells/mL based on OD600 measurement. […]
The inoculated assay block was challenged at 30° C. for 48 hours. […] This was done in triplicate for each point (the triplicate is already present in the biocide block viz. each point is truly determined in triplicate). […]
The recovery plates were subsequently read (checked for microbial growth) at 72 hours after addition of the culture, to recovery media. Ranking of biocidal efficacy was done by recording the development of turbidity within each well (determined by visual inspection). […] Ranking was done per average value of three data points determined per experiment. (Recorded in log regrowth). […]

Molecule | Glyoxal stand alone 48 h pass ([1]; T. thermophilus, glyoxal alone, 48 h challenge at 60° C., ocean matrix 2% salinity) [ppm] | Sensitivity of Thermus thermophilus to Glyoxal ([1]; vs. Pseudomonas aeruginosa and E. coli) | Glyoxal stand alone 48 h pass ([2]; glyoxal alone) [ppm] | THPS stand alone 48 h pass ([1]; T. thermophilus, THPS alone, 48 h challenge at 60° C., ocean matrix 2% salinity) [ppm] | THPS stand alone 48 h pass ([2]; THPS alone) [ppm]
O=CC=O [Glyoxal, glyoxal] | 59 | *Thermus thermophilus is more sensitive to Glyoxal vs. Pseudomonas aeruginosa and E. coli. | 875 | – | –
tetrakis(hydroxymethyl)phosphonium sulfate [THPS] | – | – | – | 300 | 130
